Laboratory results as given in a melting point compilation (Tetko et al.; mined from patent text by program, amines drawn as free bases though some values may be those of a salt).

| SMILES | melting point [°C] |
| --- | --- |
| CCOC(=S)c1[nH]c(C)nc1C(C)(C)O | 128 to 129 |
| Cc1nc2cc(C(=O)Nc3ccccc3)ccc2o1 | 138 to 139 |
| C#Cc1ccc(NC(=O)N[C@H](CCC)C(=O)Nc2ccc(N3CCOCC3=O)cc2)cc1 | 182 |
| CCOC(=O)c1c(-c2ccccc2Cl)c2cc(C)cc(C)c2[nH]c1=O | 257 to 258 |
| COC(=O)c1csc(-c2ccc([N+](=O)[O-])cc2)n1 | 224 to 227 |
| CCCC(CCC)n1c(CC)nc2c1c(=O)n(C)c(=O)n2Cc1ccc(OC)cc1 | 120 to 122 |
| Cn1c(=S)ccn(C2OC(CO)C(O)C2O)c1=O (configuration not stated) | 146 to 148 |
| COc1cc2c(cc1Nc1ncc(Cl)c(N[C@H]3[C@@H](C(N)=O)[C@@H]4C=C[C@H]3C4)n1)CCN(CC(=O)N1CCN(C)CC1)CC2 | 190 |
| Cc1ccc2c(c1)CN(C)C(c1ccc(C(C)(C)C)cc1)C2 (configuration not stated) | 106 to 108 |
| Cc1cc(Oc2cccc(C(F)(F)F)c2)nn1C(=O)Nc1ccc(Cl)cc1 | 73 to 74 |
| C/C=C1\NC(=O)N(CCCC)C1=O | 127 |
| NC(=O)C1CCC(=O)N1CC#CCN1CCCC1 (configuration not stated) | 146 to 148 |
| O=C1c2ccc(F)cc2C(=O)N1CC(=O)N1c2ccccc2N(Cc2ccccc2)C(=O)[C@H]2CCC[C@H]21 (relative stereo) | 235 to 236 |
| O=[N+]([O-])c1cc2c(c3c([N+](=O)[O-])cccc13)C(CCl)CN2 (configuration not stated) | 130 to 131 |
| CC(C)(Oc1ccc(C(=O)NCc2ccc(Cl)cc2)cc1)C(=O)O | 180 |
| NC(=O)Cc1ccc(-c2ccc(C(CC3CCOCC3)c3ccc(S(=O)(=O)C4CC4)cc3)[nH]2)nc1 (configuration not stated) | 151 to 153 |
| O=C(O)c1ccn(-c2ccc(C(=O)O)c(Cl)c2)n1 | 260 to 263 |
| CC1=C(c2ccccc2)C(=O)N(C(C)(C)C(O)c2cc(F)cc(F)c2)CO1 (configuration not stated) | 87.6 to 89 |
| CS(=O)(=O)c1ccc(-c2sc(-c3ccccc3Cl)nc2-c2ccccc2F)cc1 | 163 to 166 |
| CCc1[nH]n(C2CCCC2)c2nc(Cc3ccc(OCC(=O)O)cc3)nc(=O)c1-2 | 218 to 220 |
| COc1cccc(OC2COc3ccc(O)cc3C2O)c1 (configuration not stated) | 187 to 189 |
| Oc1ccc(-n2nc3c(c2Cl)CCCC3)c(F)c1 | 214 to 216 |
| CN(C(=O)c1ccc2nonc2c1)C1CCOC(O)C1 (configuration not stated) | < 90 |
| O=C(c1ccc(C(F)(F)F)cc1)c1cc(O)c(O)c([N+](=O)[O-])c1 | 116 to 118 |

| SMILES | melting point [°C] |
| --- | --- |
| CC(C)CN1CCC2(CC1)CSC1=C(O2)c2ccccc2C(=O)C1=O | 158 to 161 |
| COc1ccc(C(=O)OC2C(O)C=C(C)C(=O)CC2(C)C)cc1OC (configuration not stated) | 150 to 152 |
| O=c1ccc(O)nn1-c1ccc(OC(F)(F)F)cc1 | 243 |
| N#CC(=Cc1cc(O)c(O)c([N+](=O)[O-])c1)C(N)=O | 296 to 298 |
| NC(=O)N1CCN(c2n[nH]c3ccccc23)CC1 | 158 to 160 |
| CC(C)n1nc(-c2c(Nc3ccccn3)nc(N)nc2-c2ccccc2)ccc1=O | 163 to 164 |
| Cc1oc(-c2ccccc2)nc1/C=C/c1ccc(Br)cc1 | 138 to 139 |
| CCCc1cccc(N2CC(=O)N(C)C(=O)N2)c1 | 112 to 115 |
| CCc1noc(-c2cn(-c3nccs3)cn2)n1 | 147 to 148 |
| Cc1nc2ncnn2c(N2CCC(C)CC2)c1-c1ccc(F)cc1Cl | 236 |
| CN1C(=O)C2C3CCC(C3)C2(c2ccc3c(c2)CCCC3)C1=O (configuration not stated) | 108 to 114 |
| O=C(O)c1ccc(OCCNC(=O)C2Cc3ccccc3N2S(=O)(=O)c2ccc(-c3ccc(F)cc3)cc2)c(C(F)(F)F)c1 (configuration not stated) | 139 to 142 |
| CC(C)(C)OC(=O)Nc1cc(N)cc(Cl)c1 | 85 to 87 |
| O=C(N=C1CCCN1Cc1ccccc1)Nc1cccc(Cl)c1 | 91 to 93 |
| CC1(C)Cc2nc(C3CC3)c(Cc3ccc(C(F)(F)F)cc3)c(-c3ccc(F)c(F)c3)c2C(O)C1 (configuration not stated) | 126 to 127 |
| CSc1nc(OCC2COC(C)(C)O2)c2c(-c3ccccc3Cl)n[nH]c2n1 (configuration not stated) | 120 to 122 |
| CCCCCCCCCCCCCCCCCCCCC(=S)NCCCN(CC)CC | 61 |
| O=C(CC(=S)N1CCC[C@H]1C(=O)O)c1ccccc1 | 151 to 152 |
| O=C(NCCO[N+](=O)[O-])c1csc(-c2cccc([N+](=O)[O-])c2)n1 | 149 to 152 |
| O=C1Nc2ccccc2C1c1nc(Cl)nc2nn(C3CCCC3)cc12 (configuration not stated) | 270 to 273 |
| COc1cc2nc(N3CCN(C(=O)C=Cc4ccoc4)CC3)nc(N)c2cc1OC | 252 to 253 |
| CCOC(=O)C(Cl)=Cc1ccc([N+](=O)[O-])cc1 | 108 to 110 |
| CC(C)(C)c1cc(-c2nnc(NS(C)(=O)=O)s2)cc(C(C)(C)C)c1O | 293 to 294 |
| CON=CNC(=O)c1ccc(C2=NOC(c3cc(Cl)cc(Cl)c3)(C(F)(F)F)C2)cc1C(C)(C)N (configuration not stated) | 144 to 146 |

| SMILES | melting point [°C] |
| --- | --- |
| COc1ccc(N2Cc3cnc(Nc4ccccc4)nc3N(C[C@@H](C)O)C2=O)cc1 | 189 to 193 |
| CCC(C)(N)Cc1c[nH]c2ccccc12 (configuration not stated) | 112 |
| NS(=O)(=O)c1cccc(-c2noc(-c3cnn4c(C5CC5)cc(-c5ccc(C(F)(F)F)cc5)nc34)n2)c1 | 277 |
| O=C(O)c1cc(C(F)(F)F)ccc1Sc1ccccc1 | 140 to 145 |
| O=C(O)c1cn2c(ccc3ccc(Cl)cc32)n1 | 288 to 289 |
| CC(C)(C)C(COC(N)=O)(NC(=O)C(=O)c1c[nH]c2ccc(Br)cc12)c1c[nH]c2ccc(Br)cc12 (configuration not stated) | 207 |
| CC(C)(O)c1nc(CO)n(Cc2ccc(-c3ccccc3-c3nnn[nH]3)cc2)c1C(=O)O | 201 to 202 |
| CS(=O)(=O)c1cnc(Cl)c(CCC(=O)c2ccc(Cl)c(Cl)c2)c1 | 128 to 130 |
| OC(Cn1ccnc1)(c1ccc(Cl)cc1)c1ccc(Cl)cc1 | 208 to 210 |
| Cc1c(C)c2c(c(C)c1NC(=O)CC(C)(C)C)OCC2c1ccc(C(C)C)cc1 (configuration not stated) | 214 to 215 |
| CSc1nc(Cl)ncc1C | 73 to 76 |
| CCOC(=O)c1ccc(Cn2c(C)nc3cnccc32)cc1 | 164 to 166 |
| CCCCCCOc1ccc2c(COC)c(OCCCCCC)ccc2c1COC | 103 to 104 |
| Cc1oc(-c2ccccc2)nc1CCC(O)c1ccc(CCC2OC(=O)NC2=O)cc1 (configuration not stated) | 145 to 146 |
| C[Si](C)(C)C#Cc1c(F)c(F)c(F)c(C#C[Si](C)(C)C)c1F | 55 to 57 |
| CNC(=O)c1ccc2[nH]ccc2c1 | 140 to 141 |
| COc1cc(OC)cc(N2CCN(C(=S)Nc3nc(C)c(C)nc3OC)CC2)c1 | 71 to 73 |
| CC(C)Cc1c2c(nn1C)c(N)nc1ncccc12 | > 250 |
| CCOC(=O)COc1cccc(Cl)c1 | 39 to 40 |
| Cc1ccc(S(=O)(=O)N2CCCC2c2cccc(Cl)c2)cc1 (racemic) | 107 |
| OC1(c2ccncc2)CCc2ccccc21 (configuration not stated) | 151 |
| O=C(NO)c1ccc(OC(=O)C2(c3ccccc3)CCCCC2)cc1 | 142 to 144 |
| Nc1ccccc1-c1nc2ccccc2o1 | 104 to 107 |
| CCc1cc(-c2ccc(F)cc2)c(O)cc1OCCCOc1cccc(Oc2ccccc2C(=O)O)c1CC(C)C | 48 to 49 |
